Literature values as cited in patent US20070154935A1, “HUMAN OBESITY SUSCEPTIBILITY GENE AND USES THEREOF” (INTEGRAGEN, priority 2002, published 2007).

Tests used:
healthy controls = conditions: intranasal application
[1] = tested on: massively obese child with leptin deficiency mutation; conditions: one child with leptin deficiency mutation

Row | Substance | body fat mass (healthy controls) | plasma leptin concentrations (healthy controls) | weight (healthy controls) | treatment outcome of morbid obesity [1]
1 | adrenocorticotropin4-10 (MEHFRWG; Corticotropin; UniProt P01189 141-147, looked up, fragment) [ACTH4-10] | reduced | reduced | reduced | 
2 | recombinant leptin: recombinant leptin given to a child with a leptin deficiency mutation |  |  |  | treated successfully
